Measured values: patent US20070213359A1 (ACADIA Pharmaceuticals Inc., priority 2005, published 2007)
Where two headings read alike, the source gives them in different places.

Target: Ghrelin receptor (Homo sapiens, UniProt Q92847)
Assay: Receptor Selection and Amplification Technology (R-SAT) assay
Format: cell-based
Set-up: expressed in transfected cells; host or cells: NIH3T3
Details: for Emax: read-out: RSAT Eff(%); for IC50: '—' not defined (nd used separately), read-out: RSAT pIC50 (converted)
[1] = percent inhibition at saturating ligand, normalized to reference ligand Substance P analog = 100%
[2] = negative logarithm of ligand concentration causing 50% inhibition of constitutive receptor response, transfected NIH3T3 cells

Chain of Ghrelin receptor (Q92847 whole entry): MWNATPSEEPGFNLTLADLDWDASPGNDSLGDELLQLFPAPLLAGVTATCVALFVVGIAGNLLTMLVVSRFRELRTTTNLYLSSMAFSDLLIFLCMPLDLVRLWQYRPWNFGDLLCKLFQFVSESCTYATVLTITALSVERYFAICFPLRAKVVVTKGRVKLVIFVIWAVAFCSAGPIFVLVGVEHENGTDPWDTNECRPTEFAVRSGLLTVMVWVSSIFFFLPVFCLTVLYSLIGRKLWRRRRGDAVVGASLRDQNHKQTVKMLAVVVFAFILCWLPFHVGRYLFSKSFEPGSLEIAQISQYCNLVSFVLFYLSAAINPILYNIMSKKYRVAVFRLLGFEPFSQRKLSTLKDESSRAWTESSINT

SMILES | Emax | Emax [1] | IC50 [2] | also measured
CC(=O)c1cn(CCCN2C3CCC2CC(CC(=O)c2ccc(Cl)cc2)C3)c2c(C#N)cccc12 (centres unmarked) | 31% | – | – | –
COc1cccc2c(C#N)cn(CCCN3CCN(CCOc4ccccc4)CC3)c12 | – | 42% | – | –
CC(=O)c1cn(CCCNCCOc2ccccc2)c2c(Cl)cccc12 | – | 84% | 0.1 µM | –
COc1cccc2c(C(=O)NCC(C)C)cn(CCCN3CCN(Cc4ccc(Cl)cc4Cl)CC3)c12 | 105% | – | – | IC50 ([…]): 0.0251 µM
CC(=O)c1cn(CCN2C3CCC2CC(O)(c2ccc(F)cc2)C3)c2ccccc12 (centres unmarked) | – | -11% | 2.51 µM | –
COc1cccc2c(C(=O)C3CC3)cn(CCCN3CCC(c4nc(-c5ccncc5)no4)CC3)c12 | 87% | – | – | IC50 ([…]): 0.02 µM
COc1cccc2c(C(=O)NCc3cccc(Cl)c3)cn(CCCN3CCC(Oc4ccccc4Cl)CC3)c12 | 125% | – | – | IC50 ([…]): 0.126 µM
CC(=O)c1cn(CCCN2C3CCC2CC(CCc2ccc(Cl)cc2)C3)c2c(Cl)cccc12 (centres unmarked) | – | 122% | 0.0316 µM | –
COc1cccc2c(C(C)=O)cn(CCCN3CCC(O)(Cc4ccccc4)CC3)c12 | – | 106% | 0.126 µM | –
CCc1cccc2c(C(C)=O)cn(CCCN3CCC(N4C(=O)Cc5ccccc54)CC3)c12 | – | – | – | RSAT Eff(%): 147%; IC50 ([…]): 0.1 µM
CC(=O)c1c(C)n(CCCN2CCC3(CC2)CC(=O)c2ccccc2O3)c2c(Br)cccc12 | 8% | – | – | –
CCOC(=O)C1CCN(CCn2cc(C(C)=O)c3ccccc32)CC1 | 72% | – | – | IC50 ([…]): 3.98 µM
CC(=O)c1cn(CCCN2C3CCC2CC(Oc2ccc(Cl)cc2)C3)c2ccccc12 (centres unmarked) | 108% | – | – | IC50 ([…]): 0.501 µM
CC(=O)c1cn(CCCN2CCC(C(=O)c3ccccc3)CC2)c2c(Cl)cccc12 | – | 92% | 1580 µM | –
O=C(c1cn(CCCN2C3CCC2CC(O)(c2ccc(F)cc2)C3)c2ccccc12)C(F)(F)F (centres unmarked) | – | 58% | 251 µM | –
CC(=O)c1cn(CCN2C3CCC2CC(OCC2CC2)C3)c2ccccc12 (centres unmarked) | – | 54% | 0.251 µM | –
COc1cccc2c(C(C)=O)cn(CC(C)CN3CCC(c4nc(-c5ccncc5)no4)CC3)c12 (centres unmarked) | 78% | – | – | –
CCC(=O)c1cn(CCCN2C3CCC2CC(OCC2CC2)C3)c2ccccc12 (centres unmarked) | – | 120% | 2.51 µM | –
CC(=O)c1cn(CCCN2CCC(N3C(=O)Cc4ccccc43)CC2)c2c(Br)cccc12 | – | – | – | RSAT Eff(%): 60%; IC50 ([…]): 0.1 µM
CC(=O)c1cn(CCCN2C3CCC2CC(CC(=O)c2ccc(Cl)cc2)C3)c2ncccc12 (centres unmarked) | – | 11% | – | –
COc1cccc2c(C(=O)Cc3ccccc3)cn(CCCNCCOc3ccccc3)c12 | 92% | – | – | IC50 ([…]): 0.0501 µM
O=C(c1cn(CCCN2CCN(CCOc3ccc(Cl)cc3)CC2)c2ncccc12)C(F)(F)F | – | 38% | – | –
CCCOC1CCN(CCCn2cc(C(=O)CC(C)C)c3ccccc32)CC1 | – | 81% | 0.126 µM | –
CC(=O)c1cn(CC(O)CN2CCN(C(C)c3ccccc3)CC2)c2ccccc12 (centres unmarked) | 23% | – | – | –
O=C(c1cn(CCCN2CCC(c3nc4ccccc4s3)CC2)c2ccccc12)C(F)(F)F | – | 88% | 0.398 µM | –
CC(=O)c1cn(CCCCN2CCC(Oc3ccccc3Cl)CC2)c2ccccc12 | 46% | – | – | IC50 ([…]): 0.398 µM
COc1ccc2[nH]c3c(c2c1)CCN(CCCCn1cc(C(C)=O)c2ccccc21)C3 | – | 9% | – | –

SMILES | Emax | Emax [1] | IC50 [2] | also measured
COc1ccc2c(c1)c(C(C)=O)cn2CCCN1CCC(Oc2ccc(F)cc2)CC1 | – | 58% | 0.631 µM | –
CC(=O)c1cn(CCCN2CCN(CCOc3ccc(Cl)cc3)CC2)c2c(Cl)cccc12 | 32% | – | – | –
CCCCC(=O)c1cn(CCCN2CCC(Oc3ccccc3Cl)CC2)c2ccc(OC)cc12 | – | 92% | 0.251 µM | –
CC(=O)c1cn(CCCN2CCN(Cc3ccc(Cl)cc3Cl)CC2)c2c(C)cccc12 | – | 120% | 0.158 µM | –
COc1cccc2c(C(=O)C3CC3)cn(CCCN3C4CCC3CC(CC(=O)c3ccccc3)C4)c12 (centres unmarked) | 86% | – | – | IC50 ([…]): 2 µM
CC(=O)c1cn(CCCN2CCCC(Oc3ccc(Cl)cc3)C2)c2ncccc12 (centres unmarked) | – | 53% | – | –
COc1cccc2c(C(C)=O)cn(CCCN3CCC(S(=O)(=O)c4ccc(Cl)cc4)CC3)c12 | – | 71% | 10 µM | –
COc1cccc2c(C(=O)C3CC3)cn(CCCN3C4CCC3CC(CCc3ccccc3)C4)c12 (centres unmarked) | 109% | – | – | IC50 ([…]): 0.00251 µM
CC(=O)c1cn(CCCCN2CCN(C(C)c3ccccc3)CC2)c2ccccc12 (centres unmarked) | – | 69% | 2 µM | –
COc1cccc2c(C(=O)C3CC3)cn(CCCNC3Cc4ccccc4C3)c12 | 97% | – | – | IC50 ([…]): 0.0251 µM
COc1cccc2c(C(=O)Cc3ccccc3)cn(CCCN3CCC4(CC3)CC(=O)c3ccccc3O4)c12 | 98% | – | – | IC50 ([…]): 0.0794 µM
COc1cccc2c(C(=O)C3CC3)cn(CCCN3CCCC(Cc4ccccc4Cl)C3)c12 (centres unmarked) | 28% | – | – | –
COc1ccccc1C1CCN(CC(C)Cn2cc(C(C)=O)c3ccccc32)CC1 (centres unmarked) | – | 64% | 15.8 µM | –
COc1cccc2c(C(C)=O)cn(CCCN3CCC(Oc4ccc(F)cc4)CC3)c12 [drawing 241] | – | – | 0.00251 µM | RSAT Eff(%) [1]: 104%
COc1cccc2c(C(=O)NCc3cccc(C)c3)cn(CCCN3CCCC(Oc4ccc(Cl)cc4)C3)c12 (centres unmarked) | 14% | – | – | –
COc1cccc2c(C(=O)NCC(C)C)cn(CCCN3CCCN(Cc4ccccc4Cl)CC3)c12 | 100% | – | – | IC50 ([…]): 0.0158 µM
CC(=O)c1cn(CCCN2CCC(c3nc(-c4cccnc4)no3)CC2)c2c(Cl)cccc12 | – | 101% | 0.631 µM | –
O=C(c1cn(CCCN2C3CCC2CC(Oc2ccc(Cl)cc2)C3)c2ccccc12)C(F)(F)F (centres unmarked) | – | 97% | 0.251 µM | –
CC(=O)c1cn(CCCN2CCC(c3nc(-c4cccnc4)no3)CC2)c2c(C)cccc12 | – | 103% | 0.2 µM | –
CC(=O)c1cn(CCCN2C3CCC2CC(CC(=O)c2ccc(Cl)cc2)C3)c2c(C)cccc12 (centres unmarked) | 19% | – | – | –
CC(=O)c1cn(CCCN2CCCN(Cc3ccc(F)cc3)CC2)c2c(Cl)cccc12 | – | 115% | 0.00794 µM | –
CC(=O)c1cn(CCCN2CCCC(Oc3ccc(Cl)cc3)C2)c2c(Br)cccc12 (centres unmarked) | – | 46% | 1.26 µM | –
CC(=O)c1cn(CCCN2CCC(C(=O)c3ccccc3)CC2)c2ccc(Br)cc12 | – | 60% | 10 µM | –
CCC(=O)c1cn(CCCN2CCC(S(=O)(=O)c3ccc(Cl)cc3)CC2)c2ccccc12 | 1% | – | – | –
CC(=O)c1cn(CCCN2CCC(c3nc(-c4ccncc4)no3)CC2)c2c(Cl)cccc12 | – | 108% | 0.251 µM | –
COc1ccc2[nH]c3c(c2c1)CCN(CCCn1cc(C(=O)C(F)(F)F)c2ccccc21)C3 | – | 106% | 2.51 µM | –
CC(=O)c1cn(CCCN2CCC(Oc3ccc(Cl)cc3)CC2)c2c(Cl)cccc12 | – | 107% | 2 µM | –

SMILES | Emax | Emax [1] | IC50 [2] | also measured
CC(=O)c1cn(CCCCN2CCC(c3nc4ccccc4s3)CC2)c2ccccc12 | – | 81% | 0.398 µM | –
CC(=O)c1cn(CCCN2CCN(CCOc3ccc(Cl)cc3)CC2)c2c(Br)cccc12 | 12% | – | – | –
CCCCC1CCN(CCCCn2cc(C(C)=O)c3ccccc32)CC1 | 113% | – | – | IC50 ([…]): 0.794 µM
CCCOC1CCN(CCCn2cc(CCC(C)=O)c3ccccc32)CC1 | – | 75% | 15.8 µM | –
CC(C)CC(=O)c1cn(CCCN2C3CCC2CC(OC2=CC=C(Cl)CC2)C3)c2ccccc12 (centres unmarked) | 137% | – | 0.158 µM | –
CC(=O)c1cn(CCCCN2CCC(Cc3ccccc3)CC2)c2ccccc12 | – | 86% | 3.98 µM | –
CCc1cccc2c(C(C)=O)cn(CCCN3CCCC(Cc4ccccc4Cl)C3)c12 (centres unmarked) | – | 87% | 0.02 µM | –
COc1cccc2c(C(C)=O)cn(CC(C)CN3CCN(CCOc4ccccc4)CC3)c12 (centres unmarked) | -7% | – | – | –
CC(=O)c1cn(CCCN2CCCC(Oc3ccc(Cl)cc3)C2)c2c(C#N)cccc12 (centres unmarked) | 31% | – | – | –
O=C(c1cn(CCCN2CCC(Cc3ccccc3)CC2)c2ccccc12)C(F)(F)F | – | 112% | 6.31 µM | –
CC(=O)c1cn(CCCN2CCCN(Cc3ccc(F)cc3)CC2)c2c(C)cccc12 | 95% | – | – | IC50 ([…]): 0.00251 µM
CC(=O)c1cn(CCCCN2CCC(C(=O)c3ccccc3)CC2)c2ccccc12 | 38% | – | – | –
CC(=O)c1cn(CC(O)CN2CCC(Oc3ccccc3Cl)CC2)c2ccccc12 (centres unmarked) | – | 69% | 3.16 µM | –
CCCCC[C@H]1C[C@H]2CC[C@@H](C1)N2CCCn1cc(C(=O)c2ccccc2)c2cccc(OC)c21 | 91% | – | – | IC50 ([…]): 0.2 µM
COc1cccc2c(C(=O)NCc3cccc(C)c3)cn(CCCN3CCC(c4nc(-c5ccncc5)no4)CC3)c12 | 121% | – | – | IC50 ([…]): 0.0158 µM
COc1ccc2c(C(C)=O)cn(CCCN3C4CCC3CC(OC3=CC=C(Cl)CC3)C4)c2c1 (centres unmarked) | – | 108% | 0.501 µM | –
CCCCC1CCN(CCCn2cc(C(C)=O)c3cc(OC)ccc32)CC1 | – | 118% | 0.398 µM | –
CC(=O)c1cn(CCCNCCOc2ccccc2)c2c(Br)cccc12 | 132% | – | – | IC50 ([…]): 0.0501 µM
COc1cccc2c(C(=O)NCc3cccc(Cl)c3)cn(CCCN3CCC(C(=O)c4ccccc4)CC3)c12 | 114% | – | – | IC50 ([…]): 2.51 µM
CC(=O)c1cn(CCCN2CCCC(Cc3ccccc3Cl)C2)c2c(Br)cccc12 (centres unmarked) | -18% | – | – | –
COc1cccc2c(C(C)=O)cn(CC(C)CN3C4CCC3CC(CCc3ccccc3)C4)c12 (centres unmarked) | 120% | – | 0.0501 µM | –
COc1ccccc1C1CCN(CCCn2cc(C(=O)NCc3cccc(Cl)c3)c3cccc(OC)c32)CC1 | 127% | – | – | IC50 ([…]): 0.631 µM
COc1ccccc1C1CCN(CCCn2cc(C(=O)C(F)(F)F)c3ccccc32)CC1 | – | 82% | 1.58 µM | –
CC(=O)c1cn(CCCN2C3CCC2CC(Oc2ccccc2Cl)C3)c2c(Cl)cccc12 (centres unmarked) | 60% | – | – | –
O=C(c1cn(CCCN2CCN(Cc3ccc(Cl)cc3Cl)CC2)c2ncccc12)C(F)(F)F | – | 78% | 0.126 µM | –
CC(=O)c1cn(CCCN2CCC(c3nc4ccccc4s3)CC2)c2ccccc12 [drawing 462] | – | 115% | 0.1 µM | –
